PubChem BioAssay (NCI)
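Values below derive from 48-hour exposures of cells grown in 96-well plates, with endpoints linearly interpolated between the two concentrations bracketing the appropriate inhibition level. Here, GI50 denotes the concentration required for 50% inhibition of growth. TGI marks complete inhibition of growth.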

Columns and labels:
Assay in all cases: inhibition of tumour cell growth, NCI panel, 48 h
KM20L2 colon = tested on: KM20L2 colon
CAKI-1 renal = tested on: CAKI-1 renal
MOLT-4 leukemia = tested on: MOLT-4 leukemia
HCT-116 colon = tested on: HCT-116 colon
KM12 colon = tested on: KM12 colon
XF 498 CNS = tested on: XF 498 CNS
NCI-H23 lung = tested on: NCI-H23 lung
UACC-257 melanoma = tested on: UACC-257 melanoma
RPMI-8226 leukemia = tested on: RPMI-8226 leukemia
EKVX NSCLC = tested on: EKVX NSCLC
SK-MEL-2 melanoma = tested on: SK-MEL-2 melanoma
HOP-62 NSCLC = tested on: HOP-62 NSCLC
OVCAR-5 ovarian = tested on: OVCAR-5 ovarian
HOP-18 NSCLC = tested on: HOP-18 NSCLC
U251 CNS = tested on: U251 CNS
SK-MEL-5 melanoma = tested on: SK-MEL-5 melanoma
OVCAR-3 ovarian = tested on: OVCAR-3 ovarian
K-562 leukemia = tested on: K-562 leukemia
LOX IMVI melanoma = tested on: LOX IMVI melanoma
SNB-19 CNS = tested on: SNB-19 CNS
RXF 393 renal = tested on: RXF 393 renal
LXFL 529 NSCLC = tested on: LXFL 529 NSCLC
SN12C renal = tested on: SN12C renal
SK-MEL-28 melanoma = tested on: SK-MEL-28 melanoma
CCRF-CEM leukemia = tested on: CCRF-CEM leukemia
DMS 114 small cell lung = tested on: DMS 114 small cell lung
TK-10 renal = tested on: TK-10 renal
OVCAR-4 ovarian = tested on: OVCAR-4 ovarian
HOP-92 NSCLC = tested on: HOP-92 NSCLC
NCI-H226 lung = tested on: NCI-H226 lung
IGROV1 ovarian = tested on: IGROV1 ovarian
MALME-3M melanoma = tested on: MALME-3M melanoma
786-0 renal = tested on: 786-0 renal
NCI-H460 lung = tested on: NCI-H460 lung
M14 melanoma = tested on: M14 melanoma
HL-60(TB) leukemia = tested on: HL-60(TB) leukemia
SF-539 CNS = tested on: SF-539 CNS
SF-295 CNS = tested on: SF-295 CNS
HCT-15 colon = tested on: HCT-15 colon
OVCAR-8 ovarian = tested on: OVCAR-8 ovarian
SK-OV-3 ovarian = tested on: SK-OV-3 ovarian
A549 NSCLC = tested on: A549 NSCLC
SR leukemia = tested on: SR leukemia
SW-620 colon = tested on: SW-620 colon
DLD-1 colon = tested on: DLD-1 colon
HT29 colon = tested on: HT29 colon
UACC-62 melanoma = tested on: UACC-62 melanoma
HCC-2998 colon = tested on: HCC-2998 colon
COLO 205 colon = tested on: COLO 205 colon
M19-MEL melanoma = tested on: M19-MEL melanoma
SF-268 CNS = tested on: SF-268 CNS
UO-31 renal = tested on: UO-31 renal
ACHN renal = tested on: ACHN renal
A498 renal = tested on: A498 renal
SNB-78 CNS = tested on: SNB-78 CNS
NCI-H522 lung = tested on: NCI-H522 lung
SNB-75 CNS = tested on: SNB-75 CNS
DMS 273 small cell lung = tested on: DMS 273 small cell lung

Question: Which GI50 (KM20L2 colon) does the source give for CC(C)(C)C(=O)[CH-]C(=O)C(F)(F)C(F)(F)C(F)(F)F.CC(C)(C)C(=O)[CH-]C(=O)C(F)(F)C(F)(F)C(F)(F)F.[O-]CC1OC(O)C(O)C(O)C1O.[O-]CC1OC(O)C(O)C(O)C1O.[Ti+4] here?
Answer: > 100 µM

Question: What about the TGI (KM20L2 colon) of the same compound?
Answer: > 100 µM

Question: And the TGI (CAKI-1 renal)?
Answer: > 100 µM

Question: What about the TGI (MOLT-4 leukemia) of the same compound?
Answer: > 100 µM

Question: What about the TGI (HCT-116 colon) of the same compound?
Answer: > 100 µM

Question: What about the TGI (KM12 colon) of the same compound?
Answer: > 100 µM

Question: And the GI50 (XF 498 CNS)?
Answer: > 100 µM

Question: What about the TGI (XF 498 CNS) of the same compound?
Answer: > 100 µM

Question: And the TGI (NCI-H23 lung)?
Answer: > 100 µM

Question: And the TGI (UACC-257 melanoma)?
Answer: > 100 µM

Question: What about the TGI (RPMI-8226 leukemia) of the same compound?
Answer: > 100 µM

Question: And the TGI (EKVX NSCLC)?
Answer: > 100 µM

Question: What about the TGI (SK-MEL-2 melanoma) of the same compound?
Answer: > 100 µM

Question: And the TGI (HOP-62 NSCLC)?
Answer: > 100 µM

Question: What about the TGI (OVCAR-5 ovarian) of the same compound?
Answer: > 100 µM

Question: And the GI50 (HOP-18 NSCLC)?
Answer: > 100 µM

Question: And the TGI (HOP-18 NSCLC)?
Answer: > 100 µM

Question: And the TGI (U251 CNS)?
Answer: > 100 µM

Question: What about the TGI (SK-MEL-5 melanoma) of the same compound?
Answer: > 100 µM

Question: And the TGI (OVCAR-3 ovarian)?
Answer: > 100 µM

Question: What about the TGI (K-562 leukemia) of the same compound?
Answer: > 100 µM

Question: What about the TGI (LOX IMVI melanoma) of the same compound?
Answer: > 100 µM

Question: And the TGI (SNB-19 CNS)?
Answer: > 100 µM

Question: What about the TGI (RXF 393 renal) of the same compound?
Answer: > 100 µM

Question: And the GI50 (LXFL 529 NSCLC)?
Answer: 71.4 µM

Question: What about the TGI (LXFL 529 NSCLC) of the same compound?
Answer: > 100 µM

Question: What about the TGI (SN12C renal) of the same compound?
Answer: > 100 µM

Question: What about the TGI (SK-MEL-28 melanoma) of the same compound?
Answer: > 100 µM

Question: What about the TGI (CCRF-CEM leukemia) of the same compound?
Answer: > 100 µM

Question: And the GI50 (DMS 114 small cell lung)?
Answer: > 100 µM

Question: What about the TGI (DMS 114 small cell lung) of the same compound?
Answer: > 100 µM

Question: What about the TGI (TK-10 renal) of the same compound?
Answer: > 100 µM

Question: What about the TGI (OVCAR-4 ovarian) of the same compound?
Answer: > 100 µM

Question: And the TGI (HOP-92 NSCLC)?
Answer: 96.9 µM

Question: And the TGI (NCI-H226 lung)?
Answer: > 100 µM

Question: And the TGI (IGROV1 ovarian)?
Answer: > 100 µM

Question: What about the TGI (MALME-3M melanoma) of the same compound?
Answer: > 100 µM

Question: And the TGI (786-0 renal)?
Answer: > 100 µM

Question: And the TGI (NCI-H460 lung)?
Answer: > 100 µM

Question: What about the TGI (M14 melanoma) of the same compound?
Answer: > 100 µM

Question: And the TGI (HL-60(TB) leukemia)?
Answer: > 100 µM

Question: What about the TGI (SF-539 CNS) of the same compound?
Answer: > 100 µM

Question: What about the TGI (SF-295 CNS) of the same compound?
Answer: > 100 µM

Question: What about the TGI (HCT-15 colon) of the same compound?
Answer: > 100 µM

Question: What about the TGI (OVCAR-8 ovarian) of the same compound?
Answer: > 100 µM

Question: And the TGI (SK-OV-3 ovarian)?
Answer: > 100 µM

Question: And the TGI (A549 NSCLC)?
Answer: > 100 µM

Question: And the TGI (SR leukemia)?
Answer: > 100 µM

Question: And the TGI (SW-620 colon)?
Answer: > 100 µM

Question: And the GI50 (DLD-1 colon)?
Answer: 67.4 µM

Question: And the TGI (DLD-1 colon)?
Answer: > 100 µM

Question: What about the TGI (HT29 colon) of the same compound?
Answer: > 100 µM

Question: What about the TGI (UACC-62 melanoma) of the same compound?
Answer: > 100 µM

Question: And the GI50 (HCC-2998 colon)?
Answer: > 100 µM

Question: What about the TGI (HCC-2998 colon) of the same compound?
Answer: > 100 µM

Question: And the TGI (COLO 205 colon)?
Answer: > 100 µM

Question: And the GI50 (M19-MEL melanoma)?
Answer: > 100 µM

Question: What about the TGI (M19-MEL melanoma) of the same compound?
Answer: > 100 µM

Question: And the TGI (SF-268 CNS)?
Answer: > 100 µM

Question: What about the TGI (UO-31 renal) of the same compound?
Answer: > 100 µM

Question: What about the TGI (ACHN renal) of the same compound?
Answer: > 100 µM

Question: How did the TGI (KM20L2 colon) turn out when NC(=O)CCC(NC(=O)C(F)(F)F)C(=O)O (configuration not stated) was run?
Answer: > 100 µM

Question: What about the TGI (CAKI-1 renal) of the same compound?
Answer: > 100 µM

Question: What about the TGI (MOLT-4 leukemia) of the same compound?
Answer: > 100 µM

Question: And the TGI (HCT-116 colon)?
Answer: > 100 µM

Question: What about the TGI (KM12 colon) of the same compound?
Answer: > 100 µM

Question: And the TGI (XF 498 CNS)?
Answer: > 100 µM

Question: What about the TGI (A498 renal) of the same compound?
Answer: > 100 µM

Question: What about the TGI (NCI-H23 lung) of the same compound?
Answer: > 100 µM

Question: And the TGI (SNB-78 CNS)?
Answer: > 100 µM

Question: What about the TGI (UACC-257 melanoma) of the same compound?
Answer: > 100 µM

Question: What about the TGI (RPMI-8226 leukemia) of the same compound?
Answer: > 100 µM

Question: What about the TGI (EKVX NSCLC) of the same compound?
Answer: > 100 µM

Question: What about the TGI (SK-MEL-2 melanoma) of the same compound?
Answer: > 100 µM

Question: And the TGI (HOP-62 NSCLC)?
Answer: > 100 µM

Question: And the TGI (OVCAR-5 ovarian)?
Answer: > 100 µM

Question: And the TGI (HOP-18 NSCLC)?
Answer: > 100 µM

Question: What about the TGI (U251 CNS) of the same compound?
Answer: > 100 µM

Question: And the TGI (SK-MEL-5 melanoma)?
Answer: > 100 µM

Question: And the TGI (OVCAR-3 ovarian)?
Answer: > 100 µM

Question: What about the TGI (K-562 leukemia) of the same compound?
Answer: > 100 µM

Question: What about the TGI (LOX IMVI melanoma) of the same compound?
Answer: > 100 µM

Question: And the TGI (SNB-19 CNS)?
Answer: > 100 µM

Question: And the TGI (RXF 393 renal)?
Answer: > 100 µM

Question: And the TGI (LXFL 529 NSCLC)?
Answer: > 100 µM

Question: What about the TGI (SN12C renal) of the same compound?
Answer: > 100 µM

Question: And the TGI (SK-MEL-28 melanoma)?
Answer: > 100 µM

Question: What about the TGI (CCRF-CEM leukemia) of the same compound?
Answer: > 100 µM

Question: And the TGI (DMS 114 small cell lung)?
Answer: > 100 µM

Question: And the TGI (TK-10 renal)?
Answer: > 100 µM

Question: And the TGI (OVCAR-4 ovarian)?
Answer: > 100 µM

Question: What about the TGI (HOP-92 NSCLC) of the same compound?
Answer: > 100 µM

Question: And the TGI (NCI-H226 lung)?
Answer: > 100 µM

Question: And the TGI (IGROV1 ovarian)?
Answer: > 100 µM

Question: What about the TGI (MALME-3M melanoma) of the same compound?
Answer: > 100 µM

Question: What about the TGI (786-0 renal) of the same compound?
Answer: > 100 µM

Question: What about the TGI (NCI-H460 lung) of the same compound?
Answer: > 100 µM

Question: What about the TGI (M14 melanoma) of the same compound?
Answer: > 100 µM

Question: What about the TGI (SF-539 CNS) of the same compound?
Answer: > 100 µM

Question: What about the TGI (SF-295 CNS) of the same compound?
Answer: > 100 µM

Question: What about the TGI (HCT-15 colon) of the same compound?
Answer: > 100 µM

Question: What about the TGI (OVCAR-8 ovarian) of the same compound?
Answer: > 100 µM

Question: What about the TGI (NCI-H522 lung) of the same compound?
Answer: > 100 µM

Question: And the TGI (SK-OV-3 ovarian)?
Answer: > 100 µM

Question: What about the TGI (A549 NSCLC) of the same compound?
Answer: > 100 µM

Question: And the TGI (SNB-75 CNS)?
Answer: > 100 µM

Question: And the TGI (SW-620 colon)?
Answer: > 100 µM

Question: And the TGI (DLD-1 colon)?
Answer: > 100 µM

Question: What about the TGI (HT29 colon) of the same compound?
Answer: > 100 µM

Question: And the TGI (UACC-62 melanoma)?
Answer: > 100 µM

Question: And the TGI (HCC-2998 colon)?
Answer: > 100 µM

Question: And the TGI (DMS 273 small cell lung)?
Answer: > 100 µM

Question: What about the TGI (COLO 205 colon) of the same compound?
Answer: > 100 µM

Question: And the TGI (M19-MEL melanoma)?
Answer: > 100 µM

Question: What about the TGI (SF-268 CNS) of the same compound?
Answer: > 100 µM

Question: What about the TGI (UO-31 renal) of the same compound?
Answer: > 100 µM

Question: What about the TGI (ACHN renal) of the same compound?
Answer: > 100 µM
